Measurements as given in patent publication US8088819B2, “Derivatives of substituted 3-phenyl-1-(phenylthienyl)propan-1-ones and of 3-phenyl-1-(phenylfuranyl) propan-1-ones, preparation and use” (priority 2006, dated 2012).

How the values were obtained:
hPPARalpha [1] = biological target: T1, hPPARalpha (Homo sapiens, UniProt Q07869); test: PPAR activation: Gal4-hPPARα chimera luciferase transactivation in COS-7 cells, Method 1; assay type: cell-based; conditions: COS-7, 24 h; for Emax: maximum percentage response relative to the reference phenofibric acid, read-out: hPPARalpha % max
T1 construct: expressed in transfected cells; host or cells: COS-7 (monkey kidney fibroblasts)
T1 sequence (Q07869 239-466 limits assumed): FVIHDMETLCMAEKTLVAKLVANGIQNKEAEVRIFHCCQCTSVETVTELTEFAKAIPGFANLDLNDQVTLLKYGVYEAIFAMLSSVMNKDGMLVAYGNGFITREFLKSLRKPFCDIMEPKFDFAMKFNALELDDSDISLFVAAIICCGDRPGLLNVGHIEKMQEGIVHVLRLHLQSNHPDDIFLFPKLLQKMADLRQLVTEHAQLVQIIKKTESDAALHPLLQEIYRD
Protocol: (§1) The activation of the PPARs was evaluated in vitro on a line of monkey kidney fibroblasts (COS-7) by measuring the transcriptional activity of chimeras constituted of the DNA binding domain of the Gal4 transcription factor of yeast and the ligand binding domain of the various PPARs. The compounds were tested at doses between 10^−5 and […] on the chimeras Gal4-PPARα, γ or δ, and the corresponding EC50 values were determined.
(§2) The COS-7 cells were obtained from the ATCC and were cultivated in DMEM medium supplemented with 10% (v/v) of fetal calf serum, 100 U/ml of penicillin (Gibco, Paisley, UK) and 2 mM of L-glutamine (Gibco, Paisley, UK). The cells were incubated at 37° C. in a humid atmosphere containing 5% CO2.
(§3) The plasmids Gal4(RE)_TkpGL3, pGal4-hPPARα, pGal4-hPPARγ, pGal4-hPPARδ and pGal4-φ are described in the literature (Raspe E et al., 1999). The constructs pGal4-hPPARα, pGal4-hPPARγ and pGal4-hPPARδ were obtained by cloning DNA fragments amplified by PCR corresponding to the DEF domains of the human nuclear receptors PPARα, PPARγ and PPARδ in the pGal4-φ vector.
(§4) The COS-7 cells in suspension were transfected with 150 ng of DNA per well, with a pGal4-PPAR/Gal4(RE)_TkpGL3 ratio of 1/10, in the presence of 10% fetal calf serum. The cells were seeded in 96-well plates (4×10^4 cells/well) and then incubated at 37° C. for 24 hours. Activation with the test compounds is carried out for 24 h at 37° C. in serum-free medium. At the end of the experiment, the cells were lysed and the luciferase activity was determined using the Steady-Lite™ HTS (Perkin Elmer) following the supplier's recommendations.

hPPARdelta [2] = biological target: T2, hPPARdelta (Homo sapiens, UniProt Q03181); test: PPAR activation: Gal4-hPPARδ chimera luciferase transactivation in COS-7 cells, Method 1; assay type: cell-based; conditions: COS-7, 24 h; for Emax: maximum percentage response relative to the reference GW501516, read-out: hPPARdelta % max
T2 construct: expressed in transfected cells; host or cells: COS-7 (monkey kidney fibroblasts)
T2 sequence (Q03181 211-439 limits assumed): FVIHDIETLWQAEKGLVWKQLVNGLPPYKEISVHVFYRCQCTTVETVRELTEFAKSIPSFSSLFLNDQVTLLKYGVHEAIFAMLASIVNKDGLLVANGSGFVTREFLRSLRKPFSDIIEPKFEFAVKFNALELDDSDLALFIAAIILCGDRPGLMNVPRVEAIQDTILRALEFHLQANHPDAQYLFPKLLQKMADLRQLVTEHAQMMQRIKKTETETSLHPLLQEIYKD
Protocol: as §1, §2, §3, §4

hPPARgamma [3] = biological target: T3, hPPARgamma (Homo sapiens, UniProt P37231); test: PPAR activation: Gal4-hPPARγ chimera luciferase transactivation in COS-7 cells, Method 1; assay type: cell-based; conditions: COS-7, 24 h; for Emax: maximum percentage response relative to the reference rosiglitazone, read-out: hPPARgamma % max
T3 construct: expressed in transfected cells; host or cells: COS-7 (monkey kidney fibroblasts)
T3 sequence (P37231 238-503 limits assumed): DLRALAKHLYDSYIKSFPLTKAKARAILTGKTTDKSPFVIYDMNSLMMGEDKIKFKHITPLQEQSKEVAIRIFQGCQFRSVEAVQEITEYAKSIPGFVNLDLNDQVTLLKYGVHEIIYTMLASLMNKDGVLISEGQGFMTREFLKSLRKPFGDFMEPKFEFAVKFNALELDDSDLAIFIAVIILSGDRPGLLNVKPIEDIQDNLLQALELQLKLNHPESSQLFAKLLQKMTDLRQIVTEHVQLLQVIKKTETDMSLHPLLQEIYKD
Protocol: as §1, §2, §3, §4

hPPARgamma [4] = biological target: T3, hPPARgamma; test: PPAR activation: Gal4-hPPARγ chimera luciferase transactivation in COS-7 cells, Method 2; assay type: cell-based; conditions: COS-7, 24 h, Method 2; for Emax: maximum percentage response relative to the reference rosiglitazone, read-out: hPPARgamma % max; for EC50: 1% Ultroser, read-out: hPPARgamma EC50
Protocol: The activation of the PPARs was evaluated in vitro on a line of monkey kidney fibroblasts (COS-7) by measuring the transcriptional activity of chimeras constituted of the DNA binding domain of the Gal4 transcription factor of yeast and the ligand binding domain of the various PPARs.
Only the application of the transfection stage is slightly different. The details are presented below.
(§5) The adherent COS-7 cells are transfected with 40 μg of DNA per 225 cm^2 dish, with a pGal4-PPAR/Gal4(RE)_TkpGL3 ratio of 1/10, in the presence of 10% fetal calf serum. The cells are then detached and seeded in the absence of serum in 384-well plates (2×10^4 cells/well) and incubated for 4 hours at 37° C. The compounds are then diluted in a 96-well plate and transferred to the 384-well plate. Activation with the test compounds is carried out for an additional 24 h at 37° C. in the presence of 1% of Ultroser™ lipid-free synthetic serum (Biosepra). These last 2 stages are automated using a Genesis Freedom 200™ station (Tecan). At the end of the experiment, the cells are lysed and the luciferase activity is determined using the Steady-Lite™ HTS (Perkin Elmer) following the supplier's recommendations.

hPPARalpha [5] = biological target: T1, hPPARalpha; test: PPAR activation: Gal4-hPPARα chimera luciferase transactivation in COS-7 cells, Method 2; assay type: cell-based; conditions: COS-7, 24 h; for EC50: 1% Ultroser; for Emax: maximum percentage response relative to the reference phenofibric acid, read-out: hPPARalpha % max
Protocol: as §1
(§6) The principle, the cells and the plasmids used for example 5 were also employed in this example. Only the application of the transfection stage is slightly different. The details are presented below.
as §5

hPPARdelta [6] = biological target: T2, hPPARdelta; test: PPAR activation: Gal4-hPPARδ chimera luciferase transactivation in COS-7 cells, Method 2; assay type: cell-based; conditions: COS-7, 24 h; for EC50: 1% Ultroser; for Emax: maximum percentage response relative to the reference GW501516, read-out: hPPARdelta % max
Protocol: as §1, §6, §5

| EC50 (hPPARalpha [1]) [µM] | Emax (hPPARalpha [1]) [%] | melting point [°C] | EC50 (hPPARdelta [2]) [µM] | Emax (hPPARdelta [2]) [%] | EC50 (hPPARgamma [3]) [µM] | Emax (hPPARgamma [3]) [%] | Emax (hPPARgamma [4]) [%] | EC50 (hPPARgamma [4]) [µM] | EC50 (hPPARalpha [5]) [µM] | Emax (hPPARalpha [5]) [%] | EC50 (hPPARdelta [6]) [µM] | Emax (hPPARdelta [6]) [%] | SMILES |
| --- | --- | --- | --- | --- | --- | --- | --- | --- | --- | --- | --- | --- | --- |
| 0.008 | 52 | 126 to 128 | 0.036 | 75 | 0.21 | 67 | – | – | – | – | – | – | CCC(Oc1ccc(CCC(=O)c2ccc(-c3ccc(C(F)(F)F)cc3)s2)cc1Br)C(=O)O (centres unmarked) [Compound 32, 2-(2-bromo-4-(3-oxo-3-(5-(4-(trifluoromethyl)phenyl)thien-2-yl)propyl)phenoxy)butanoic acid] |
| 0.006 | 54 | 169 to 171 | 0.019 | 84 | 0.28 | 41 | – | – | – | – | – | – | CCC(Oc1ccc(CCC(=O)c2ccc(-c3ccc(C(F)(F)F)cc3)s2)c(Cl)c1Cl)C(=O)O (centres unmarked) [Compound 9, 2-(2,3-dichloro-4-(3-oxo-3-(5-(4-(trifluoromethyl)phenyl)thien-2-yl)propyl)phenoxy)butanoic acid] |
| 0.06 | 61 | 180 to 182 | 0.114 | 95 | – | 37 | – | – | – | – | – | – | O=C(O)COc1ccc(CCC(=O)c2ccc(-c3ccc(C(F)(F)F)cc3)s2)cc1Br [Compound 34, 2-(2-bromo-4-(3-oxo-3-(5-(4-(trifluoromethyl)phenyl)thien-2-yl)propyl)phenoxy)acetic acid] |
| – | – | – | – | – | – | – | 45 | 3.93 | 0.05 | 51 | 1.53 | 80 | CCC(Oc1ccc(CCC(O)c2ccc(-c3ccc(C(F)(F)F)cc3)s2)cc1F)C(=O)O (centres unmarked) [Compound 30, 2-(2-fluoro-4-(3-hydroxy-3-(5-(4-(trifluoromethyl)phenyl)thien-2-yl)propyl)phenoxy)butanoic acid] |
| 1.31 | 47 | – | 0.589 | 77 | 2.82 | 30 | – | – | – | – | – | – | O=C(O)COc1ccc(CCC(OCc2ccccc2)c2ccc(-c3ccc(C(F)(F)F)cc3)s2)cc1F (centres unmarked) [Compound 27, 2-(4-(3-(benzyloxy)-3-(5-(4-(trifluoromethyl)phenyl)thien-2-yl)-propyl)-2-fluorophenoxy)acetic acid] |

Continued, molecule first:

| SMILES | EC50 (hPPARalpha [1]) [µM] | Emax (hPPARalpha [1]) [%] | melting point [°C] | EC50 (hPPARdelta [2]) [µM] | Emax (hPPARdelta [2]) [%] | EC50 (hPPARgamma [3]) [µM] | Emax (hPPARgamma [3]) [%] | Emax (hPPARgamma [4]) [%] | EC50 (hPPARgamma [4]) [µM] | EC50 (hPPARalpha [5]) [µM] | Emax (hPPARalpha [5]) [%] | EC50 (hPPARdelta [6]) [µM] | Emax (hPPARdelta [6]) [%] |
| --- | --- | --- | --- | --- | --- | --- | --- | --- | --- | --- | --- | --- | --- |
| CCOC(CCc1ccc(OC(C)(C)C(=O)O)c(Cl)c1Cl)c1ccc(-c2ccc(C(F)(F)F)cc2)s1 (centres unmarked) [Compound 41, 2-(2,3-dichloro-4-(3-ethoxy-3-(5-(4-(trifluoromethyl)phenyl)thien-2-yl)propyl)phenoxy)-2-methylpropanoic acid] | – | – | – | – | – | – | – | 36 | 1.49 | 0.61 | 49 | 0.01 | 76 |
| CC(C)(Oc1ccc(CCC(OCc2ccc(I)cc2)c2ccc(-c3ccc(C(F)(F)F)cc3)s2)c(Cl)c1Cl)C(=O)O (centres unmarked) [Compound 6, 2-(4-(3-(4-iodobenzyloxy)-3-(5-(4-(trifluoromethyl)phenyl)thien-2-yl)propyl)-2,3-dichlorophenoxy)-2-methylpropanoic acid] | – | – | – | – | – | – | – | 55 | 4.11 | 7.86 | 41 | 0.53 | 92 |
| CCC(Oc1ccc(CCC(OCc2ccccc2)c2ccc(-c3ccc(C(F)(F)F)cc3)s2)cc1F)C(=O)O (centres unmarked) [Compound 70, 2-(4-(3-(benzyloxy)-3-(5-(4-(trifluoromethyl)phenyl)thien-2-yl)propyl)-2-fluorophenoxy)butanoic acid] | 0.227 | 47 | – | 0.216 | 67 | 0.97 | 56 | – | – | – | – | – | – |
| CC(C)(Oc1ccc(CCC(OCC2CCCCC2)c2ccc(-c3ccc(C(F)(F)F)cc3)s2)c(Cl)c1Cl)C(=O)O (centres unmarked) [Compound 42, 2-(2,3-dichloro-4-(3-(cyclohexylmethoxy)-3-(5-(4-(trifluoromethyl)phenyl)thien-2-yl)propyl)phenoxy)-2-methylpropanoic acid] | – | – | – | – | – | – | – | 47 | 0.89 | 2 | 28 | 0.26 | 82.1 |
